Where two headings read alike, the source gives them in different places.
Test system: JAK2: GM-CSF stimulated STAT5 phosphorylation
Assay: Co-stimulation assay in lysed whole blood; JAK2: GM-CSF stimulated STAT5 phosphorylation
Assay type: cell-based, human
Experimental: Example C: Co-Stimulation Assay in Lysed Whole Blood; JAK2: GM-CSF Stimulated STAT5 Phosphorylation and JAK1/TYK2 Stimulated STAT1 Phosphorylation Assay
Human Blood Lysis using abcam's RBC lysis buffer
Dilute RBC lysis buffer to 1× in distilled water. Add 2 mL blood to 38 mL of 1×RBC-lysis buffer. Incubate for 15 mins at RT, in dark. Spin at 300 g, 5 mins, to collect the pellet. Re-lyse if necessary. Re-suspend pellet in 5 mL of cRPMI.
Aliquot 80 μL of lysed human blood in to wells of 96 deep-well plate. Add 10 μl of (10× conc.) of different concentrations of compounds to all wells except controls (unstained and unstimulated) and mix it with the help of 100 uL multichannel Add 10 uL of RPMI media in controls. For dilution of compounds and dilution range please refer Appendix. Incubate on water bath or CO2 incubator for 1 hour at 37° C. Add 10 μl of (10× conc.) of cytokine mix (GM-CSF and IFNa) (final conc. 10 ng/mL of GM-CSF and 100 ng/mL of IFNa) to each well except unstimulated and unstained controls and incubate further for 20 minutes on water bath at 37° C.
Add 900 μL of prewarmed 1× Fix/Lyse solution (Appendix) and mix it properly using 1000 μl multichannel, incubate further on water bath at 37° C. for 10 minutes (which includes time of addition). Centrifuge at 800×g for 5 minutes at 40° C.; remove 900 uL of supernatant and add 900 μL of 1×PBS. Centrifuge at 800×g for 5 minutes at 40° C., remove 900 μL of supernatant. Wash one more time with 900 μL of PBS (optional) and resuspend pellets in 100 uL of PBS.
Disrupt the pellet by gentle tapping and resuspend in 1000 μL of BD Phosflow Perm Buffer III and incubate plate on ice for 30 minutes. Centrifuge plate at 800×g for 5 minutes at 40° C. Wash two more times with 1000 μL of BD Pharmingen Stain Buffer.
Disrupt the pellet by gentle tapping. Resuspend pellets in 100 uL of Stain Buffer and add 5 μL of pSTAT5_AF488 Ab and 5 uL of pSTAT1_PE in all wells except unstained control and mix properly using 200 μl multichannel, incubate overnight at […]. Add 900 μL of wash buffer and centrifuge at 1800 rpm for 3 minutes at […]. Wash one more time with 1000 μL of BD Pharmingen Stain Buffer. Finally resuspend the pellet in 300 uL of BD Pharmingen Stain Buffer. Transfer the cells to 96-well v-bottom plate and acquire the cells in Beckman Coulter CytExpert. Acquiring cells in Flow Cytometer: Keep the threshold value to 250 and cell concentration should not exceed 100-500 cells/4. Acquire at least 5,000-10,000 cells.
RPMI 1640 Complete Medium: RPMI 1640 media+10% FBS.
Cytokine dilution: 1) GM-CSF Stock at 100 ug/mL. Prepare an intermediate dilution of 1 ug/mL by adding 2 uL of stock into 198 uL of cRPMI. Further dilute to 100 ng/mL by adding 100 uL of the intermediate stock to 900 uL of cRPMI. 2) IFNa Stock at 200 ug/mL. Dilute IFNa stock 1:200 by adding 5 uL of stock into the 1000 uL of 100 ng/mL GM-CSF working stock as above to give a combined working stock of 1000 ng/mL of IFNa and 100 ng/mL GM-CSF (10×). Keep it on ice until used.
Lyse/Fix buffer preparation: Dilute 5× Lyse/Fix buffer to 1× using MQ water and keep at 37° C. until used.
BD Phosflow perm buffer III: Keep on ice/fridge

[1] = lysed human whole blood, GM-CSF 10 ng/mL (with IFNa 100 ng/mL), pSTAT5 by flow cytometry, read-out: GMCSF/J2/pS5: GeoMean
[2] = Homo sapiens, read-out: GMCSF/J2/pS5: GeoMean (nM)

IC50 [1] | SMILES | IC50 [2]
100 to 1000 nM | CC[C@H](Cn1ccc2cnc(Nc3cnn(CC(N)=O)c3)nc21)C(C)C [Example 1, (S)-2-(4-((7-(2-ethyl-3-methylbutyl)-7H-pyrrolo[2,3-d]pyrimidin-2-yl)amino)-1H-pyrazol-1-yl) acetamide] | 
 | CC[C@H](Cn1ccc2cnc(Nc3cnn(CC(=O)N4CCOC4=O)c3)nc21)C(C)C [Example 3, (5)-3-(2-(4-((7-(2-ethyl-3-methylbutyl)-7H-pyrrolo[2,3-d]pyrimidin-2-yl)amino)-1H-pyrazol-1-yl)acetyl) oxazolidin-2-one] | 1000 to 10000 nM
100 to 1000 nM | CCC(CC)Cn1ccc2cnc(Nc3cnn(CC(N)=O)c3)nc21 [Example 7, 2-(4-((7-(2-ethylbutyl)-7H-pyrrolo[2,3-d]pyrimidin-2-yl)amino)-1H-pyrazol-1-yl) acetamide] | 
 | CC[C@@H](Cn1ccc2cnc(Nc3cnn(C4CCNC4=O)c3)nc21)C(C)C (stereo partly shown) [Example 8] | 1000 to 10000 nM

From patent US20230024521A1, “JAK INHIBITORS” (Vimalan Biosciences, Inc., priority 2019, published 2023)
